From patent US6482802B1 (Endowment for Research in Human Biology, Inc., priority 1998, dated 2002)
Where “and” joins values, the source holds several entries; their conditions need not be identical. Equal values may be shown once.

Columns and labels:
[1] = tested on: chorioallantoic membrane (CAM) of chick embryos; assay: CAM assay, aFGF-induced angiogenesis; type: in vivo; details: for % Positive: aFGF alone 73, water 21
Experimental: (§1) Angiogenesis was measured on the CAM by the method of Knighton et al. (Knighton et al., 1977, Br. J. Cancer 35:347-356) essentially as described (Fett et al., 1985, Biochemistry 24:5480-5486). Fertilized chicken eggs were kept at 18° C. for 2 days and then incubated in a humidified environment at 37° C. for 3 days. Albumin was aspirated from the embryos and after 24 hours, a “window” was cut through the shell and covered with clear tape. […] After 48-68 hours at 37° C., the growth of blood vessels was observed microscopically and recorded as either positive or negative. A positive response (i.e., an angiogenic response) has a typical “spokewheel” appearance.

[2] = tested on: MDA-MB-435 human breast tumor cells; type: in vivo
Experimental: MDA-MA-435 human breast tumor cells, which are estrogen receptor negative, were injected directly into the mammary fat pad of athymic mice. Age-matched athymic female mice were assigned to treatment groups of 8 mice each and anesthetized with ketamine (212 mg/kg body weight) and xylazine (21.2 mg/kg body weight) given intraperitoneally and allowed to stabilize under anesthesia for 15 min. A heating pad was used to maintain their body temperature throughout the procedure to minimize stress. Betadine followed by 70% alcohol was swabbed onto the skin of the left lateral thorax. An incision of 6 mm in length was made through the skin in the area of the left lateral thorax behind the left front leg and the mammary fat pad was exposed by using gentle pressure with two fingers to separate the skin at the incision site. MDA-MB-435 human breast tumor cells were harvested by trypsinization, washed in HBSS, counted using trypan blue exclusion to determine cell viability, and 10,000 cells in a total volume of 20 μl were injected into the fat pad using a 27 gauge needle. The incision was closed with 2 drops of Vetbond veterinarian tissue adhesive and the mouse was allowed to recover on the heating pad before returning to its cage. […] Mice were examined daily for tumor growth by gentle palpation of the lateral left thorax in the general area of the injection.

[3] = tested on: HUVE cells; assay: EGF-induced proliferation of HUVE cells; type: cell-based, human; details: for EGF Cell No.: EGF 5 ng/ml, 48 hrs, 0 μM 5300 ± 300
Experimental: (§2) The cells were incubated at 37° C. under humidified air containing 5% CO2 for 48 hrs. […] Cell numbers were determined with a Coulter counter.

[4] = tested on: chorioallantoic membrane (CAM) of chick embryos; assay: CAM assay, EGF-induced angiogenesis; type: in vivo; details: for % Positive: EGF alone 69, water 21
Experimental: as §1

[5] = tested on: HUVE cells; assay: bFGF-induced proliferation of HUVE cells (neomycin dose series); type: cell-based, human; details: for bFGF Cell No.: bFGF 10 ng/ml, 48 hrs, 0 μM: 59600 ± 2600
Experimental: as §2

[6] = tested on: PC-3 human prostate tumor cells
Excerpt: Mice were examined daily by palpation for the first sign of tumor appearance at which time tumor size was estimated twice weekly by caliper measurements (longest perpendicular length and width).

[7] = tested on: chorioallantoic membrane (CAM) of chick embryos; assay: CAM assay, bFGF-induced angiogenesis; type: in vivo; details: for % Positive: bFGF alone 78, water 21
Experimental: as §1

[8] = tested on: HUVE cells; assay: VEGF-induced proliferation of HUVE cells; type: cell-based, human; details: for VEGF Cell No.: VEGF 5 ng/ml, 48 hrs, 0 μM: 45100 ± 200
Experimental: as §2

Substance: neomycin
- % Inhibition of angiogenic activity ([1]; aFGF 10 ng + neomycin 20 ng): 71%
- Positive eggs ([1]; aFGF 10 ng + neomycin 20 ng, 14 total eggs): 5
- % Positive ([1]; aFGF 10 ng + neomycin 20 ng): 36%
- % Inhibition of angiogenic activity ([1]; aFGF 10 ng + neomycin 200 ng): 75%
- Positive eggs ([1]; aFGF 10 ng + neomycin 200 ng, 47 total eggs): 16
- % Positive ([1]; aFGF 10 ng + neomycin 200 ng): 32% and 34%
- dosage that inhibited aFGF-induced angiogenesis ([1]; in vivo): about 200 ng per embryo
- establishment of MDA-MB-435 human breast tumors ([2]; 60 mg/kg body weight i.p., daily 20 days, then 4 times per week 42 days, 8 mice): completely inhibited the establishment
- mice with tumors by day 56 ([2]; 60 mg/kg i.p., all 8 control mice developed tumors): none of the mice had tumors
- EGF Inhib. % of cell proliferation ([3]; neomycin 25 μM): 17%
- EGF Cell No. ([3]; neomycin 25 μM): 46700 ± 600
- EGF Inhib. % of cell proliferation ([3]; neomycin 50 μM): 35%
- EGF Cell No. ([3]; neomycin 50 μM): 41700 ± 600
- EGF Inhib. % of cell proliferation ([3]; neomycin 100 μM): 59%
- EGF Cell No. ([3]; neomycin 100 μM): 35700 ± 1100
- EGF Inhib. % of cell proliferation ([3]; neomycin 150 μM): 71%
- EGF Cell No. ([3]; neomycin 150 μM): 32800 ± 200
- EGF Inhib. % of cell proliferation ([3]; neomycin 200 μM): 100%
- EGF Cell No. ([3]; neomycin 200 μM): 26000 ± 900
- IC50 ([3]; read-out: IC50, EGF-induced proliferation of endothelial cells): ~100 µM
- % Inhibition of angiogenic activity ([4]; EGF 10 ng + neomycin 20 ng): 19%
- Positive eggs ([4]; EGF 10 ng + neomycin 20 ng, 15 total eggs): 9
- % Positive ([4]; EGF 10 ng + neomycin 20 ng): 60%
- % Inhibition of angiogenic activity ([4]; EGF 10 ng + neomycin 200 ng): 81%
- Positive eggs ([4]; EGF 10 ng + neomycin 200 ng, 30 total eggs): 9
- % Positive ([4]; EGF 10 ng + neomycin 200 ng): 30%
- dosage that inhibited EGF-induced angiogenesis ([4]; in vivo): about 200 ng per embryo
- bFGF Inhib. % of cell proliferation ([5]; neomycin 25 μM): 19%
- bFGF Cell No. ([5]; neomycin 25 μM): 51500 ± 700
- bFGF Inhib. % of cell proliferation ([5]; neomycin 50 μM): 34%
- bFGF Cell No. ([5]; neomycin 50 μM): 45900 ± 1200
- bFGF Inhib. % of cell proliferation ([5]; neomycin 100 μM): 41%
- bFGF Cell No. ([5]; neomycin 100 μM): 42600 ± 200
- bFGF Inhib. % of cell proliferation ([5]; neomycin 150 μM): 49%
- bFGF Cell No. ([5]; neomycin 150 μM): 39900 ± 125
- bFGF Inhib. % of cell proliferation ([5]; neomycin 200 μM): 64%
- bFGF Cell No. ([5]; neomycin 200 μM): 34600 ± 400
- IC50 ([5]; read-out: IC50, bFGF-induced proliferation of endothelial cells): ~100 µM
- mice in which appearance of PC-3 tumors was prevented ([6]; 20 mg/kg body weight s.c., 6 times per week 20 days, then 4 times per week 30 days, 6 mice): 50%
- tumor status of treated mice by day 18 ([6]; 20 mg/kg s.c., control 2 of 6 with tumor): all of the mice in the neomycin-treated group remained tumor-free
- animals that had developed tumors as of day 42 ([6]; 20 mg/kg s.c., control 100%): 50%
- % Inhibition of angiogenic activity ([7]; bFGF 10 ng + neomycin 20 ng): 58%
- Positive eggs ([7]; bFGF 10 ng + neomycin 20 ng, 33 total eggs): 15
- % Positive ([7]; bFGF 10 ng + neomycin 20 ng): 45%
- % Inhibition of angiogenic activity ([7]; bFGF 10 ng + neomycin 200 ng): 81%
- Positive eggs ([7]; bFGF 10 ng + neomycin 200 ng, 38 total eggs): 12
- % Positive ([7]; bFGF 10 ng + neomycin 200 ng): 34% and 32%
- dosage that inhibited bFGF-induced angiogenesis ([7]; in vivo): about 200 ng per embryo
- VEGF Inhib. % of cell proliferation ([8]; neomycin 25 μM): 14%
- VEGF Cell No. ([8]; neomycin 25 μM): 41000 ± 300
- VEGF Inhib. % of cell proliferation ([8]; neomycin 50 μM): 20%
- VEGF Cell No. ([8]; neomycin 50 μM): 38900 ± 1300
- VEGF Inhib. % of cell proliferation ([8]; neomycin 100 μM): 22%
- VEGF Cell No. ([8]; neomycin 100 μM): 36400 ± 400
- VEGF Inhib. % of cell proliferation ([8]; neomycin 150 μM): 36%
- VEGF Cell No. ([8]; neomycin 150 μM): 35000 ± 200
- VEGF Inhib. % of cell proliferation ([8]; neomycin 200 μM): 34%
- VEGF Cell No. ([8]; neomycin 200 μM): 33800 ± 200
